In patent publication US11147781B2, “Methods for alleviating statin myopathy” (priority 2014, dated 2021):
Read-outs that look alike come from different tables or passages of the source.

Columns and labels:
[1] = test system: patients with statin-induced myopathy (SIM); format: in vivo, human; parameters: triglycerides: unit not given here
Experimental: A clinical study was conducted to evaluate the effects of HMB on patients with statin-induced myopathy (SIM). A total of eighteen patients were evaluated for the study with informed written consent obtained. Of the eighteen patients, fourteen (14) ultimately qualified as having true statin myalgia and were enrolled in the study. All patients enrolled were under the care of a board certified cardiologist.
A summary of the enrolled patients and their outcomes is as follows: • 1. All 14 had type 2a or mixed hyperlipidemia. • 2. All 14 had been treated with multiple statin agents, in each case withdrawing from the statin agent due to myalgia/myopathy. • 3. Of the 14 patients enrolled, 4 had elevated CPKs (creatine phosphokinase, a biomarker for myositis/rhabdomyolysis) secondary to SIM. • 4. Five of the 14 patients had undergone prior percutaneous coronary intervention with stents. • 5. One of the 14 patients had undergone prior coronary bypass surgery. • 6. Four of the 14 patients had angiographically documented moderate coronary artery disease not requiring percutaneous coronary intervention (PCI)/coronary bypass. • 7. Four of the 18 patients were disqualified due to the following: • Patient's leg myalgia was secondary to angiographically proven peripheral vascular disease, not SIM and symptoms were consistent with this diagnosis. • Patient's unilateral leg pain was secondary to neuropathy, not SIM. • Patient complained of GI upset on combined statin+3-hydroxy 3-methybutyrate and medication was discontinued. […] All 14 qualified patients remained on combination statin (in some cases with Zetia to achieve target) plus HMB therapy after the initial duration of the study. As noted, of those who had previously discontinued statin therapy, all had been tried on multiple statin agents without success. • 9. Follow up was conducted with all patients including out-patient visits and phone conversation. • 10.
The free acid form was used in one patient who experienced major CPK elevations (900-1000 IU/L range) and disabling myalgia on statins.
For this study, patients were evaluated using multiple laboratories with variable lab normal ranges, which are included. In the patient population as a whole, the full spectrum of SIM is presented, including statin myalgia […] CPK elevation (myositis or rhabdomyolysis depending on severity), elevation of CPK without myalgia, post-statin elevation of CPK with and without pain, post-statin myalgia without CPK elevation, and, finally, statin-induced muscle weakness without myalgia. Also represented were other statin-induced side effects such as short-term memory loss and glucose intolerance.

acute rhabdomyolysis = test: In-patient treatment of acute rhabdomyolysis with HMB; format: in vivo, human; settings: HMB free acid (gel form) 6 g twice daily for 3 days, within 3 days
From the text: HMB administration is used to treat acute rhabdomyolysis in an in-patient setting.
Acute rhabdomyolysis is a rare but extreme and potentially life-threatening disorder that can occur in all groups in a setting of dehydration, trauma, and in younger age groups, intense exercise. […] At this time there is no known method of reversing rhabomyolysis apart from bed rest and hydration.
Protocol: measure patient's CPK; if value exceeds 10 times the upper limit of normal (200 IU/L, depending on laboratory-specific established normal range), initiate the following: • 1. Admit to ICU; • 2. Initiate IV 0.9% saline at 165 ml/hour; • 3. Initiate HMB free acid (gel form), dose 6 g twice daily for 3 days; • 4. Lab: CPK, BUN, creatinine, glucose and electrolytes every 12 hours for 3 days.

[2] = free acid form versus calcium monohydrate form; cited from earlier work
[3] = Patient A-1, 3 months, Crestor 10 mg daily + 2 g BID
[4] = Patient F-6, atorvastatin 40 mg + Zetia 10 mg + 2 g BID, 2-month follow-up

## CC(C)c1nc(N(C)S(C)(=O)=O)nc(-c2ccc(F)cc2)c1/C=C/[C@@H](O)C[C@@H](O)CC(=O)O [Crestor®, rosuvastatin, reference compound]
[1]; human, in vivo
  CPK under statin: 320 IU/L

## CC(C)(O)CC(=O)O [HMB free acid]
[1]; Patient D-4, free acid 2 gelcaps TID (3 g daily), after ten days, before 378
  CPK: 257 IU/L
[1]; Patient D-4, free acid 3 g daily, ten days
  patient-reported state: felt better
[1]; Patient D-4, free acid 3 g daily, ten days, before >200
  fasting blood glucose: 100 mg %
[1]; Patient O-15, converted to free acid 1 g TID, three months post-enrollment
  symptoms: completely symptom-free
[1]; free acid gel cap, one patient (D-4) with major CPK elevations on statins
  change in CPK: significant decrease
[1]; free acid gel cap, one patient (D-4), improvement over calcium monohydrate form
  symptoms: resolution in symptoms
Acute rhabdomyolysis
  CPK: below 200 IU/L
[2]
  bioavailability: more bioavailable

## CC(C)(O)CC(=O)[O-].CC(C)(O)CC(=O)[O-].[Ca+2] [calcium HMB monohydrate]
[1]; Patient A-1, 2 g BID, 9 days later, before HMB 242, range 26-192
  CPK: 87 IU/L
[1]; Patient A-1, 2 g BID, post-statin myositis, before re-introducing statin
  time to complete resolution of all pain: 3 days
[1]; [3]
  CPK: 110 IU/L
  LDL: 72 mg/dL
  symptoms: asymptomatic
[1]; Patient B-2, Vytorin 10/40 + 2 g BID, 50 days, before 168
  LDL: 110 mg %
[1]; Patient B-2, Vytorin 10/40 + 2 g BID, 50 days, lab normal range 44-196
  CPK: 173 IU/L
[1]; Patient B-2, six months later, on Vytorin
  symptoms: completely asymptomatic
[1]; Patient C-3, Crestor 10 mg daily + 2 g BID, three months
  symptoms: completely symptom free
[1]; Patient D-4, Crestor 20 mg + Zetia 10 mg + 2 g BID, 37 days
  myalgia: resolved except for very mild discomfort climbing stairs
[1]; Patient D-4, Crestor 20 mg + Zetia 10 mg + 2 g BID, 37 days, before 705, range 26-192
  CPK: 277 IU/L
[1]; Patient D-4, Crestor 20 mg + Zetia 10 mg + 2 g BID, 37 days, before >200 mg %
  LDL: 49
[1]; Patient D-4, five months later, diabetes uncontrolled
  CPK: 378 IU/L
[1]; Patient E-5, 2 g BID, post-statin myalgia
  bilateral calf myalgia: resolved rapidly and completely
[1]; Patient E-5, after HMB treatment 2 g BID, range 39-308
  CPK: 110 IU/L
[1]; [4]
  myalgia: completely resolved
  short term memory loss: improved
[1]; Patient F-6, atorvastatin 40 mg + Zetia 10 mg + 2 g BID, repeat
  LDL: 43
[1]; Patient G-7, statin + 2 g BID, four weeks, range 29-168
  CPK: 39 IU/L
[1]; Patient G-7, statin + 2 g BID, four weeks, reduced from 169
  LDL: 108
[1]; Patient G-7, statin resumed + 2 g BID, approximately four weeks
  symptoms: free of all symptoms of myalgia and muscle weakness
[1]; Patient H-8, 2 g BID combination, one month
  symptoms: completely asymptomatic
[1]; Patient J-10, Lipitor 10 mg daily + 2 g BID, one month
  bilateral thigh pain: complete resolution of bilateral thigh pain
[1]; Patient K-11, 47 days
  CPK reduction: 32%
  LDL reduction: 50%
[1]; Patient K-11, Crestor 20 mg daily + 2 g BID, 47 days, before 282
  LDL: 139
[1]; Patient K-11, Crestor 20 mg daily + 2 g BID, 47 days, before 282 (29-168)
  CPK: 191 IU/L
[1]; Patient K-11, exercises near-daily
  symptoms: pain-free
[1]; Patient L-12, Crestor 5 mg daily + 2 g BID, two months, before 122
  LDL: 100
[1]; Patient L-12, Crestor 5 mg daily + 2 g BID, two months, before 261
  triglycerides: 193
[1]; Patient L-12, two months
  symptoms: pain-free
[1]; Patient L-12, two months, range 29-168
  CPK: 87 IU/L
[1]; Patient M-13, Crestor + 2 g BID, four months, before 244
  LDL: 114
[1]; Patient M-13, Crestor + 2 g BID, four months, before 320, range 39-308
  CPK: 210 IU/L
[1]; Patient M-13, follow-up five months after enrollment
  myalgia: All myalgia had resolved
[1]; Patient M-13, four months
  CPK reduction: 34%
  LDL reduction: 53%
[1]; Patient N-14, statin continued + 2 g BID, 13 days
  muscle weakness: symptoms of muscle weakness had resolved
[1]; Patient O-15, 2 months post-enrollment, 5 days/week weight program, before 274 (30-200)
  CPK: 310 IU/L
[1]; Patient O-15, 2 months post-enrollment, before 30
  LDL: 53
[1]; Patient O-15, combined statin therapy + 2 g BID, four weeks
  quadriceps/thigh pain: complete resolution of all quadriceps/thigh pain
[1]; Patient P-16, simvastatin + 2 g BID, sixteen days, persistent groin stiffness
  thigh pain: no longer had any thigh pain

## CCC(C)(C)C(=O)O[C@H]1C[C@@H](C)C=C2C=C[C@H](C)[C@H](CC[C@@H]3C[C@@H](O)CC(=O)O3)[C@H]21 [simvastatin, reference compound]
[1]; human, in vivo
  CPK under statin (severe rhabdomyolysis): 900-1000 IU/L
